Test results reported in the supplement of paper PMC8024199.
± gives the standard deviation of the averaged measurements.

Tests used:
Assay in all cases: drug sensitivity score (DSS) (DSS score); higher = more sensitive (stronger growth inhibition); extreme values may be limits of the assay
[1] = tested on: Ba/F3 P210-BCR-ABL1 RUNX1-/- (mouse)
Outline: (§1)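 Mouse Ba/F3 cells, either CRISPR/Cas9-edited at a target exon or edited-control clones, were screened against a 528-compound library on pre-printed 384-well plates. Each compound was tested at five concentrations across a 10,000-fold range, with 10,000 cells per well in RPMI with 10% FBS for 72 h at 37 °C and 5% CO2. CellTiter-Glo luminescence was scaled between vehicle and positive-control wells, and each dose-response was summarised as a drug sensitivity score. Scores were averaged over two replicates.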

[2] = tested on: Ba/F3 P210-BCR-ABL1 RUNX1-/mut (mouse)
Outline: as §1

[3] = tested on: Ba/F3 P210-BCR-ABL1 RUNX1wt/wt control (mouse)
Outline: as §1

COc1cc2c(Nc3ccc(Cl)c(Cl)c3F)ncnc2cc1OC[C@@H]1C[C@@H]2CN(C)C[C@@H]2C1 [Tesevatinib]
drug sensitivity score [1]: 0.55 ± 0.49 | drug sensitivity score [2]: 0.9 ± 1.3 | drug sensitivity score [3]: 0

O=c1sn(-c2cccc3ccccc23)c(=O)n1Cc1ccccc1 [Tideglusib]
drug sensitivity score [1]: 0 | drug sensitivity score [2]: 0 | drug sensitivity score [3]: 0

Cn1cncc1[C@@](N)(c1ccc(Cl)cc1)c1ccc2c(c1)c(-c1cccc(Cl)c1)cc(=O)n2C [Tipifarnib]
drug sensitivity score [1]: 22.4 ± 2.8 | drug sensitivity score [2]: 18.5 ± 2.3 | drug sensitivity score [3]: 4.55 ± 0.071

CC#CC(=O)N1CC[C@@H](n2c(=O)n(-c3ccc(Oc4ccccc4)cc3)c3c(N)ncnc32)C1 [Tirabrutinib]
drug sensitivity score [1]: 0.85 ± 0.92 | drug sensitivity score [2]: 0.65 ± 0.78 | drug sensitivity score [3]: 0

O=C1NC(=O)[C@@H](c2cn3c4c(cccc24)CCC3)[C@@H]1c1c[nH]c2ccccc12 [Tivantinib]
drug sensitivity score [1]: 5.6 ± 0.57 | drug sensitivity score [2]: 5.45 ± 0.071 | drug sensitivity score [3]: 3.25 ± 0.071

COc1cc2nccc(Oc3ccc(NC(=O)Nc4cc(C)on4)c(Cl)c3)c2cc1OC [Tivozanib]
drug sensitivity score [1]: 22.8 ± 0.92 | drug sensitivity score [2]: 18.1 ± 0.92 | drug sensitivity score [3]: 14.45 ± 0.071

CN(C)CCOc1ccc(/C(=C(/CCCl)c2ccccc2)c2ccccc2)cc1 [Toremifene]
drug sensitivity score [1]: 5.9 ± 1.7 | drug sensitivity score [2]: 6.9 ± 2.7 | drug sensitivity score [3]: 4.85 ± 0.35

CC(C)C[C@@H](C(=O)N[C@H](C(=O)OC1CCCC1)c1ccccc1)[C@H](O)C(=O)NO [Tosedostat]
drug sensitivity score [1]: 11.4 ± 1.7 | drug sensitivity score [2]: 11.3 ± 4.3 | drug sensitivity score [3]: 1.85 ± 0.49

Cc1cc(Nc2cc(N3CCN(C)CC3)nc(Sc3ccc(NC(=O)C4CC4)cc3)n2)n[nH]1 [Tozasertib]
drug sensitivity score [1]: 17.7 ± 0.14 | drug sensitivity score [2]: 12.3 ± 0.85 | drug sensitivity score [3]: 7.95 ± 0.071

NC(=S)N/N=C/c1ncccc1N [Triapine]
drug sensitivity score [1]: 5.6 ± 0.28 | drug sensitivity score [2]: 5.05 ± 0.071 | drug sensitivity score [3]: 4.65 ± 0.071

O=c1[nH]c(=O)n([C@H]2C[C@H](O)[C@@H](CO)O2)cc1C(F)(F)F [Trifluridine]
drug sensitivity score [1]: 15.5 ± 0.14 | drug sensitivity score [2]: 14.6 ± 0.85 | drug sensitivity score [3]: 8.45 ± 0.21

O=C(CCCCCCC(=O)Nc1ccc([C@H]2O[C@@H](CSc3nc(-c4ccccc4)c(-c4ccccc4)o3)C[C@@H](c3ccc(CO)cc3)O2)cc1)NO [Tubacin]
drug sensitivity score [1]: 6.45 ± 1.2 | drug sensitivity score [2]: 6.2 ± 0.28 | drug sensitivity score [3]: 4.35 ± 0.78

CN1CCc2c(c3ccccc3n2Cc2ccc(C(=O)NO)cc2)C1 [Tubastatin A]
drug sensitivity score [1]: 4.05 ± 0.64 | drug sensitivity score [2]: 3.6 | drug sensitivity score [3]: 0

Cc1cc(Nc2ncnc3ccc(NC4=NC(C)(C)CO4)cc23)ccc1Oc1ccn2ncnc2c1 [Tucatinib]
drug sensitivity score [1]: 0.4 ± 0.57 | drug sensitivity score [2]: 0 | drug sensitivity score [3]: 0

Nc1cc(F)ccc1NC(=O)c1ccc(CNC(=O)/C=C/c2cccnc2)cc1 [Tucidinostat]
drug sensitivity score [1]: 9.05 ± 2.8 | drug sensitivity score [2]: 8.05 ± 4.6 | drug sensitivity score [3]: 4.9 ± 0.14

COC(=O)c1ccc2c(c1)[nH]c1ncnc(NCCCN3CCCCC3)c12 [UM729]
drug sensitivity score [1]: 4.1 ± 1.1 | drug sensitivity score [2]: 3.5 ± 4.5 | drug sensitivity score [3]: 0

COc1cc2c(NC3CCN(C(C)C)CC3)nc(C3CCCCC3)nc2cc1OCCCN1CCCC1 [UNC0638]
drug sensitivity score [1]: 9.2 ± 0.57 | drug sensitivity score [2]: 7.75 ± 2 | drug sensitivity score [3]: 1.45 ± 0.64

COc1cc2c(NC3CCN(C(C)C)CC3)nc(N3CCC(F)(F)CC3)nc2cc1OCCCN1CCCC1 [UNC0642]
drug sensitivity score [1]: 5.35 ± 1.6 | drug sensitivity score [2]: 6.5 ± 3 | drug sensitivity score [3]: 0.15 ± 0.071

O=C(c1ccc(C(=O)N2CCC(N3CCCC3)CC2)c(Nc2ccccc2)c1)N1CCC(N2CCCC2)CC1 [UNC1215]
drug sensitivity score [1]: 0 | drug sensitivity score [2]: 0 | drug sensitivity score [3]: 0

CCCCNc1ncc(C(=O)NCc2ccc(-n3ccnc3)cc2)c(NC2CCC(O)CC2)n1 (stereo unspecified) [UNC2881]
drug sensitivity score [1]: 0.3 ± 0.42 | drug sensitivity score [2]: 0 | drug sensitivity score [3]: 0

NC(=O)c1cccc(-c2cccc(OC(=O)NC3CCCCC3)c2)c1 [URB597]
drug sensitivity score [1]: 0 | drug sensitivity score [2]: 0.15 ± 0.21 | drug sensitivity score [3]: 0.05 ± 0.071

CC(C)Nc1cc(-c2c[nH]c(C(=O)N[C@H](CO)c3cccc(Cl)c3)c2)c(Cl)cn1 [Ulixertinib]
drug sensitivity score [1]: 7.25 ± 0.071 | drug sensitivity score [2]: 5.6 ± 0.42 | drug sensitivity score [3]: 2.45 ± 1.6

CC[C@@H]1CN(C(=O)NCC(F)(F)F)C[C@@H]1c1cnc2cnc3[nH]ccc3n12 [Upadacitinib]
drug sensitivity score [1]: 0.75 ± 1.1 | drug sensitivity score [2]: 0.05 ± 0.071 | drug sensitivity score [3]: 5.35 ± 3

Cn1ncc(Cl)c1-c1cc(C(=O)N[C@H](CN)Cc2ccc(F)c(F)c2)oc1Cl [Uprosertib]
drug sensitivity score [1]: 0.4 ± 0.57 | drug sensitivity score [2]: 0 | drug sensitivity score [3]: 0

CS(=O)(=O)c1ccc(-c2cnc(N)c(C(=O)Nc3ccccc3)n2)cc1 [VE-821]
drug sensitivity score [1]: 5.55 ± 4.5 | drug sensitivity score [2]: 4.3 ± 4.8 | drug sensitivity score [3]: 1.8

O=C(O)CC1CC(c2ccccc2)=NO1 (stereo unspecified) [VGX-1027]
drug sensitivity score [1]: 0.9 ± 1.3 | drug sensitivity score [2]: 0.05 ± 0.071 | drug sensitivity score [3]: 0

C=CC(=O)N1CC/C(=C\c2ccc(F)c([N+](=O)[O-])c2)C(=O)/C(=C/c2ccc(F)c([N+](=O)[O-])c2)C1 [VLX1570]
drug sensitivity score [1]: 23.1 ± 0.78 | drug sensitivity score [2]: 23.5 ± 4.7 | drug sensitivity score [3]: 15.8 ± 0.92

CNC(=O)c1ccccc1Nc1cc(Nc2ccc(N3CCOCC3)cc2OC)ncc1C(F)(F)F [VS-4718]
drug sensitivity score [1]: 8.65 ± 0.49 | drug sensitivity score [2]: 7.65 ± 1.1 | drug sensitivity score [3]: 4.2 ± 0.28

CCCC(CCC)C(=O)O [Valproic acid]
drug sensitivity score [1]: 2.3 ± 0.28 | drug sensitivity score [2]: 0.75 ± 0.071 | drug sensitivity score [3]: 0

CCc1c(C(=O)C(N)=O)c2c(OCC(=O)O)cccc2n1Cc1ccccc1 [Varespladib]
drug sensitivity score [1]: 0 | drug sensitivity score [2]: 0.65 ± 0.92 | drug sensitivity score [3]: 0

C[C@@H]1COC(Nc2ccc3ncnc(Nc4ccc(OCc5nccs5)c(Cl)c4)c3c2)=N1 [Varlitinib]
drug sensitivity score [1]: 1.35 ± 1.9 | drug sensitivity score [2]: 1.15 ± 1.6 | drug sensitivity score [3]: 0

CC1(C)CCC(CN2CCN(c3ccc(C(=O)NS(=O)(=O)c4ccc(NCC5CCOCC5)c([N+](=O)[O-])c4)c(Oc4cnc5[nH]ccc5c4)c3)CC2)=C(c2ccc(Cl)cc2)C1 [Venetoclax]
drug sensitivity score [1]: 0 | drug sensitivity score [2]: 1.05 ± 1.5 | drug sensitivity score [3]: 1.4 ± 1.4

O=C(/C=C\n1cnc(-c2cc(C(F)(F)F)cc(C(F)(F)F)c2)n1)NNc1ccccn1 [Verdinexor]
drug sensitivity score [1]: 14.4 ± 0.92 | drug sensitivity score [2]: 13.3 ± 0.57 | drug sensitivity score [3]: 9.1 ± 0.42

CCCCOc1nc(N)c2c(n1)N(Cc1cccc(CN3CCCC3)c1)CC(=O)N2 [Vesatolimod]
drug sensitivity score [1]: 2.65 ± 3.8 | drug sensitivity score [2]: 3.25 ± 3.8 | drug sensitivity score [3]: 1.65 ± 0.35

COc1cccc(-c2ccc(NC(=O)C3=C(C(=O)O)CCC3)c(F)c2)c1 [Vidofludimus]
drug sensitivity score [1]: 2.2 ± 2.8 | drug sensitivity score [2]: 2.4 ± 1.7 | drug sensitivity score [3]: 0

CC[C@]1(O)C[C@H]2CN(CCc3c([nH]c4ccccc34)[C@@](C(=O)OC)(c3cc4c(cc3OC)N(C=O)[C@H]3[C@@](O)(C(=O)OC)[C@H](OC(C)=O)[C@]5(CC)C=CCN6CC[C@]43[C@@H]65)C2)C1 [Vincristine]
drug sensitivity score [1]: 23.9 ± 4.2 | drug sensitivity score [2]: 23.1 ± 2.5 | drug sensitivity score [3]: 13.9 ± 2.3

CC[C@]12C=CCN3CC[C@@]4(c5cc([C@@]6(C(=O)OC)C[C@@H]7C[C@@H](C(C)(F)F)CN(Cc8c6[nH]c6ccccc86)C7)c(OC)cc5N(C)[C@H]4[C@@](O)(C(=O)OC)[C@@H]1OC(C)=O)[C@@H]32 [Vinflunine]
drug sensitivity score [1]: 4.4 ± 0.42 | drug sensitivity score [2]: 3.95 ± 0.49 | drug sensitivity score [3]: 3.55 ± 0.21

CCC1=C[C@@H]2CN(C1)Cc1c([nH]c3ccccc13)[C@@](C(=O)OC)(c1cc3c(cc1OC)N(C)[C@H]1[C@@](O)(C(=O)OC)[C@H](OC(C)=O)[C@]4(CC)C=CCN5CC[C@]31[C@@H]54)C2 [Vinorelbine]
drug sensitivity score [1]: 38 ± 2.1 | drug sensitivity score [2]: 36.1 ± 1.1 | drug sensitivity score [3]: 19.1

CNC(=O)c1cccc(-c2ccc3c(N4CCOC[C@@H]4C)nc(N4CCOC[C@@H]4C)nc3n2)c1 [Vistusertib]
drug sensitivity score [1]: 18.8 ± 0.35 | drug sensitivity score [2]: 16.1 ± 3.8 | drug sensitivity score [3]: 11

CC[C@@H]1C(=O)N(C)c2cnc(Nc3ccc(C(=O)N[C@H]4CC[C@H](N5CCN(CC6CC6)CC5)CC4)cc3OC)nc2N1C(C)C [Volasertib]
drug sensitivity score [1]: 11.15 ± 0.071 | drug sensitivity score [2]: 10.3 ± 0.42 | drug sensitivity score [3]: 5.9 ± 0.28

FC(F)c1nc2ccccc2n1-c1nc(N2CCOCC2)nc(N2CCOCC2)n1 [ZSTK474]
drug sensitivity score [1]: 9.85 ± 2.6 | drug sensitivity score [2]: 9.75 ± 5.9 | drug sensitivity score [3]: 5.3 ± 0.85

Cc1sc2c(c1C)C(c1ccc(Cl)cc1)=N[C@@H](CC(=O)NCCCCNC(=O)COc1cccc3c1C(=O)N(C1CCC(=O)NC1=O)C3=O)c1nnc(C)n1-2 (stereo partly specified) [dBET1]
drug sensitivity score [1]: 18.8 ± 2.1 | drug sensitivity score [2]: 19.1 ± 5.4 | drug sensitivity score [3]: 11.3 ± 1.5
